Assay results taken from patent publication US8710074B2, “Dihydronaphthyridinyl(organo)methanone analogs as positive allosteric mGluR5 modulators” (Vanderbilt University, priority 2011, dated 2014).

Biological target: human mGluR5 (Homo sapiens, UniProt P41594)
Assay: Cell-based functional assay: Ca2+ mobilization (FDSS), potentiation of glutamate EC20 response
Details: HEK cells transfected with human mGluR5 (H10H or H12H cell line); positive allosteric modulation in presence of glutamate EC20
Method: Human embryonic kidney (HEK) cells transfected with rat mGluR5 were plated in clear bottom assay plates for assay in a Functional Drug Screening System (FDSS). In the alternative assay, HEK cells transfected with human mGluR5 were plated for assay in the FDSS. In some cases the HEK cells transfected with human mGluR5 were the H10H cell line. Alternatively, the HEK cells transfected with human mGluR5 were the H12H cell line. […] The cells were loaded with a Ca^2+-sensitive fluorescent dye (e.g., Fluo-4), and the plates were washed and placed in the FDSS instrument. After establishment of a fluorescence baseline for twelve seconds, the compounds of the present invention were added to the cells, and the response in cells was measured. Alternatively, in various further aspects, after establishment of a fluorescence baseline for about three seconds, the compounds of the present invention were added to the cells, and the response in cells was measured. Five minutes later, an mGluR5 agonist (e.g., glutamate, 3,5-dihydroxyphenylglycine, or quisqualate) was added to the cells, and the response of the cells was measured. Potentiation of the agonist response of mGluR5 by the compounds in the present invention was observed as an increase in response to non-maximal concentrations of agonist (here, glutamate) in the presence of compound compared to the response to agonist in the absence of compound.
The above described assay operated in two modes. In the first mode, a range of concentrations of the present compounds were added to cells, followed by a single fixed concentration of agonist. If a compound acted as a potentiator, an EC50 value for potentiation and a maximum extent of potentiation by the compound at this concentration of agonist was determined by non-linear curve fitting. In the second mode, several fixed concentrations of the present compounds were added to various wells on a plate, followed by a range of concentrations of agonist for each concentration of present compound; the EC50 values for the agonist at each concentration of compound were determined by non-linear curve fitting. A decrease in the EC50 value of the agonist with increasing concentrations of the present compounds (a leftward shift of the agonist concentration-response curve) is an indication of the degree of mGluR5 potentiation at a given concentration of the present compound. An increase in the EC50 value of the agonist with increasing concentrations of the present compounds (a rightward shift of the agonist concentration-response curve) is an indication of the degree of mGluR5 antagonism at a given concentration of the present compound. The second mode also indicates whether the present compounds also affect the maximum response to mGluR5 to agonists.
Table 1 below lists specific compounds as well as experimentally determined mGluR5 activity determined in a cell-based assay. The examples shown in Table I are provided so that the invention might be more fully understood, and these examples are illustrative only and should not be construed as limiting the invention in any way. The mGluR5 activity was determined using the metabotropic glutamate receptor activity assays in human embryonic kidney cells as described herein, wherein the human embryonic kidney cells were transfected with human mGluR5. The compounds in Table 1 were synthesized with methods identical or analogous to those shown herein. The column labeled “Rxn” and the data thereunder indicated in Table 1 refers to the Reaction Scheme number described above. The requisite starting materials were commercially available, described in the literature, or readily synthesized by one skilled in the art of organic synthesis. Compounds shown in Table I are depicted having a basic group or acidic group and named as the free base acid. […]

Chain of human mGluR5 (P41594 21-1180 isoform P41594-2 limits assumed): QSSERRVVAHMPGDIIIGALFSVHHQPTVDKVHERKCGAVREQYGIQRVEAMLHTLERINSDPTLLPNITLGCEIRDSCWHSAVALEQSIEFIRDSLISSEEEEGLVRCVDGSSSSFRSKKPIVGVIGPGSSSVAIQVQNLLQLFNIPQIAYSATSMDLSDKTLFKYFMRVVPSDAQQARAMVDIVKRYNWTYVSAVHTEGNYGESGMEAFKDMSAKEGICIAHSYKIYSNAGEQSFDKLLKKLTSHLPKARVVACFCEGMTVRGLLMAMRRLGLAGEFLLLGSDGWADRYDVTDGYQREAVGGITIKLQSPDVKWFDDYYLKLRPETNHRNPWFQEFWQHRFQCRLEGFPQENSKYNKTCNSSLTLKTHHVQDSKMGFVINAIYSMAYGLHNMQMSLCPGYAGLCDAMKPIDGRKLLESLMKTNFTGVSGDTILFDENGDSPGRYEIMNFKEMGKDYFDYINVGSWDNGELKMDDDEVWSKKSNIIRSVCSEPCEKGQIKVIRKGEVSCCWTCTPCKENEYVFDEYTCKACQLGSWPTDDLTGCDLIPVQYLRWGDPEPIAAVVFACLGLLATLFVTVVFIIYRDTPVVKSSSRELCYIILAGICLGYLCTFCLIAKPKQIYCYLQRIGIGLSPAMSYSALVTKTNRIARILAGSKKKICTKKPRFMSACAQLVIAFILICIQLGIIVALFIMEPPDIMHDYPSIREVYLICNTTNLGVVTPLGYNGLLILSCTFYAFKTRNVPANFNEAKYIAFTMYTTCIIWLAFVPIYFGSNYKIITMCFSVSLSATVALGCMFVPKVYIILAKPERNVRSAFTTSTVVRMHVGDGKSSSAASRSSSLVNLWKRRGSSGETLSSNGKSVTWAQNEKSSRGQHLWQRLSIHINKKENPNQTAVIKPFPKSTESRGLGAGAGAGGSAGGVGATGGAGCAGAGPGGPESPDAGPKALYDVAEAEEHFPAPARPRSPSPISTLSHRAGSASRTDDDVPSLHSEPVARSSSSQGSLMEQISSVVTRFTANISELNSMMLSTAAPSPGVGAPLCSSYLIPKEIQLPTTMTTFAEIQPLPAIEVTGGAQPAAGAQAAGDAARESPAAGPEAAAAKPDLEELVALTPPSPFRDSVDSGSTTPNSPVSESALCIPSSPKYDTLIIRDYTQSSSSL

| Compound | EC50 |
| --- | --- |
| O=C(c1ccc(F)cc1)N1CCc2ncc(COc3cccc(F)c3)cc2C1 [Compound 2, (3-((3-fluorophenoxy)methyl)-7,8-dihydro-1,6-naphthyridin-6(5H)-yl) (4-fluorophenyl)methanone] | 690 nM |
| O=C(C1CC1)N1CCc2ncc(OCc3cccc(F)c3)cc2C1 [Compound 6] | > 30000 nM |
| O=C(c1ccc(F)cc1)N1CCc2ncc(COc3ccccc3)cc2C1 [Compound 1, (4-Fluorophenyl)(3-(phenoxymethyl)-7,8-dihydro-1,6-naphthyridin-6(5H)-yl)methanone] | 380 nM |
| O=C(c1ccc(F)cc1)N1CCc2ncc(COc3ccc(F)cc3)cc2C1 [Compound 3, (3-((4-fluorophenoxy)methyl)-7,8-dihydro-1,6-naphthyridin-6(5H)-yl)(4-fluorophenyl)methanone] | 910 nM |
| O=C(c1cccc(F)c1)N1CCc2ncc(OCc3cccc(F)c3)cc2C1 [Compound 5] | > 30000 nM |
| CC(C)(C)OC(=O)N1CCc2ncc(OCc3cccc(F)c3)cc2C1 [Compound 4] | > 30000 nM |
